Read-outs that look alike come from different tables or passages of the source.
Tests used:
Type in all cases: cell-based
[1] = tested on: Aβ-42; assay: MSD Human (6E10) Ab 3-PLEX elisa, conditioned media of 2B7 cells: Aβ-42; settings: for IC50: Aβ-42 (superscript c)
Procedure: (§1) Assays were conducted to determine the ability of a Compound of Formula I to modulate […], and Aβ-38.
(§2) Plates with capture antibodies were blocked for 1-2 hours at room temperature with 150 μL of the manufactures blocking reagent.
(§3) Conditioned Media: • Cultured 2B7 cells in 96 well plate with 250 uL of media per well until confluent; • Prepared serial dilutions of compounds in DMSO at 100× the final desired concentration; • Washed wells with 2B7 cells 1× with 250 uL of media; • Diluted DMSO stocks 1:100 into media: • Added 250 μL of media containing compounds (1% DMSO) to wells with 2B7 cells for 5 hours at 37° C.
(§4) Elisa Sample Prep: • Diluted conditioned media: 1 part media with 1% DMSO and 1 part blocking buffer; • 150 μL of the 250 μL of conditioned media were used.
(§5) […] CURVE SAMPLE PREP: Prepared per manufacturer's protocol (see above) • Seven point standard curve samples were prepared that contained Aβ-42, Aβ-40, and Aβ-38. The highest concentration of Aβ-42 and Aβ-3-38 was 3,000 pg/mL and the highest concentration of Aβ-40 was 10,000 pg/mL. Subsequent serial dilutions were 1:3 and the final composition of each sample was 1 part blocking buffer and 1 part cell medium containing 1% DMSO.
(§6) Overnight Sample Incubation: • Blocked plates are washed 5× with MSD wash buffer with a plate washer • 25 uL of detection antibody and blocker G reagent in MSD blocking solution is added • 25 uL of samples (1 part conditioned media containing 1% DMSO and 1 part MSD blocking buffer) are then added. • plates are incubated overnight at 4 degrees C. or 2 hours at room temp
(§7) Final Wash and Readout: • Wash wells 5× with MSD wash buffer • Added 150 μL 2×MSD read buffer • Read with MSD imager.
(§8) A-Beta peptide levels for each peptide are calculated from the standard curve using the MSD software provided with the MSD 2400 Imager. Percent vehicle values for each compound dosage were then calculated and fit to a 4 parameter curve generating IC50 values.

[2] = tested on: Aβ-38; assay: MSD Human (6E10) Ab 3-PLEX elisa, conditioned media of 2B7 cells: Aβ-38; settings: for IC50: Aβ-38 (superscript a)
Procedure: as §1, §2, §3, §4, §5, §6, §7, §8

[3] = tested on: Aβ-40; assay: MSD Human (6E10) Ab 3-PLEX elisa, conditioned media of 2B7 cells: Aβ-40; settings: for IC50: Aβ-40 (superscript b)
Procedure: as §1, §2, §3, §4, §5, §6, §7, §8

[4] = Homo sapiens, read-out: IC50 range
[5] = Homo sapiens, read-out: 50% reduction value

Structure (SMILES)	IC50 [2, 4]	IC50 ([2]; read-out: 50% reduction value)	IC50 [1, 5]	IC50 [1, 4]	IC50 [2, 5]	IC50 [3, 5]	IC50 [3, 4]	further results
COC(=O)OCC1C[C@@H](C)[C@H]2C(O1)[C@H](O)[C@@]1(C)C3CC[C@H]4C(C)(C)[C@@H](OC5CN(C(=O)CC6CC6)CCO5)CC[C@@]45C[C@@]35CC[C@]21C (stereo partly shown)	1000 to 10000 nM							inhibition at 100 µM ([1]; Homo sapiens, Aβ-42, 100 μM): 25 to 75%; inhibition at 100 µM ([3]; Homo sapiens, Aβ-40, 100 μM): 25 to 75%
CC(=O)N(Cc1ccccc1)CC1CC(C)C2C(O1)C(O)C1(C)C3CCC4C(C)(C)C(O)CCC45CC35CCC21C (stereo not shown) [drawing 1207]		1000 to 10000 nM						IC50 ([1]; read-out: 50% reduction value): 1000 to 10000 nM; IC50 ([1]; read-out: IC50 range): < 1000 nM; IC50 ([3]; read-out: 50% reduction value): 1000 to 10000 nM
CC(=O)N(CC1CC(C)C2C(O1)C(O)C1(C)C3CCC4C(C)(C)C(O)CCC45CC35CCC21C)C(C)C (stereo not shown) [drawing 1213]		1000 to 10000 nM						% Inh. (range) ([1]; Aβ-42, 100 μM): E^b (100 μM) E^c (100 μM) (% inhibition of 25-75%); % Inh. (range) ([3]; Aβ-40, 100 μM): E^b (100 μM) E^c (100 μM) (% inhibition of 25-75%)
CC(=O)N1CCN(C(=O)OC2CC[C@]34C[C@]35CC[C@]3(C)[C@@H]6C(OC([C@H](OC(=O)N7CCC7)C(C)C)C[C@H]6C)[C@H](O)[C@@]3(C)C5CC[C@H]4C2(C)C)CC1 (stereo partly shown)	< 1000 nM		< 1000 nM	< 1000 nM	< 1000 nM	1000 to 10000 nM	1000 to 10000 nM	
C[C@@H]1CC(CC(=O)O)OC2[C@H]1[C@@]1(C)CC[C@@]34C[C@@]35CC[C@H](O[C@H]3CN(C(=O)CC6CC6)CCO3)C(C)(C)[C@@H]5CCC4[C@]1(C)[C@H]2O (stereo partly shown)	> 10000 nM			1000 to 10000 nM			> 10000 nM	
C[C@@H]1CC(COC(N)=O)OC2[C@H]1[C@@]1(C)CC[C@@]34C[C@@]35CC[C@H](O[C@H]3CN(C(=O)CC6CC6)CCO3)C(C)(C)[C@@H]5CCC4[C@]1(C)[C@H]2O (stereo partly shown)	< 1000 nM			1000 to 10000 nM			> 10000 nM	
CC(=O)O[C@@H]([C@H]1C[C@@H](C)C2C(O1)[C@H](O)[C@@]1(C)[C@@H]3CC[C@H]4C(C)(C)[C@@H](O[C@@H]5OC[C@@H](O)[C@H](O)[C@H]5O)CC[C@@]45C[C@@]35CC[C@]21C)C(C)(C)O (stereo partly shown) [drawing 1160]	< 1000 nM		< 1000 nM	< 1000 nM			1000 to 10000 nM	
CCC(=O)OC(C1CC(C)C2C(O1)C(O)C1(C)C3CCC4C(C)(C)C(OC5CN(C6COC6)CCO5)CCC45CC35CCC21C)C(C)(C)O (stereo not shown) [drawing 1209]		< 1000 nM						IC50 ([1]; read-out: 50% reduction value): < 1000 nM; IC50 ([2]; read-out: IC50 range): < 1000 nM; IC50 ([3]; read-out: 50% reduction value): 1000 to 10000 nM; IC50 ([3]; read-out: IC50 range): 1000 to 10000 nM
CCO[C@@H](C1C[C@@H](C)[C@H]2C(O1)[C@H](O)[C@@]1(C)C3CC[C@H]4C(C)(C)C(O[C@H]5CN(CCC(=O)O)CCO5)CC[C@@]45C[C@@]35CC[C@]21C)C(C)(C)O (stereo partly shown)			< 1000 nM	< 1000 nM	< 1000 nM	1000 to 10000 nM		
CNC(=O)O[C@H](C(C)C)C1C[C@@H](C)[C@H]2C(O1)[C@H](O)[C@@]1(C)C3CC[C@H]4C(C)(C)C(OC(=O)NC5CNC5)CC[C@@]45C[C@@]35CC[C@]21C (stereo partly shown)			< 1000 nM	< 1000 nM	< 1000 nM	1000 to 10000 nM		
CC(C)C(=O)N1CCOC(OC2CC[C@]34C[C@]35CC[C@]3(C)[C@@H]6C(OC([C@H](OC(=O)N7CCC7)C(C)C)C[C@H]6C)[C@H](O)[C@@]3(C)C5CC[C@H]4C2(C)C)C1 (stereo partly shown)	< 1000 nM		< 1000 nM	< 1000 nM	< 1000 nM	1000 to 10000 nM	> 10000 nM	
CC1CC(C(OC(=O)C2CC2)C(C)(C)O)OC2C1C1(C)CCC34CC35CCC(OC3CN(C6COC6)CCO3)C(C)(C)C5CCC4C1(C)C2O (stereo not shown)		1000 to 10000 nM						IC50 ([1]; read-out: 50% reduction value): 1000 to 10000 nM; IC50 ([2]; read-out: IC50 range): < 1000 nM; IC50 ([3]; read-out: 50% reduction value): 1000 to 10000 nM
CCO[C@@H](C1C[C@@H](C)[C@H]2C(O1)[C@H](O)[C@@]1(C)C3CC[C@H]4C(C)(C)C(OC(=O)N5CC[C@H](C(=O)O)C5)CC[C@@]45C[C@@]35CC[C@]21C)C(C)(C)O (stereo partly shown)			< 1000 nM	< 1000 nM	1000 to 10000 nM	> 10000 nM		
CC(C)C(=O)N1CCO[C@@H](O[C@H]2CC[C@]34C[C@]35CC[C@]3(C)C6C(OC(CN(C)C(N)=O)C[C@H]6C)[C@H](O)[C@@]3(C)C5CC[C@H]4C2(C)C)C1 (stereo partly shown)			1000 to 10000 nM		1000 to 10000 nM	> 10000 nM		
CC(=O)OCC1CC(C)C2C(O1)C(O)C1(C)C3CCC4C(C)(C)C(OC(=O)c5cccnc5)CCC45CC35CCC21C (stereo not shown) [drawing 1210]		1000 to 10000 nM						IC50 ([1]; read-out: 50% reduction value): 1000 to 10000 nM; IC50 ([1]; read-out: IC50 range): 1000 to 10000 nM; IC50 ([3]; read-out: 50% reduction value): 1000 to 10000 nM; IC50 ([3]; read-out: IC50 range): > 10000 nM
CC(=O)OC(C1CC(C)C2C(O1)C(O)C1(C)C3CCC4C(C)(C)C(OC5CN(S(C)(=O)=O)CCO5)CCC45CC35CCC21C)C(C)(C)O (stereo not shown) [drawing 1204]		< 1000 nM						IC50 ([1]; read-out: 50% reduction value): < 1000 nM; IC50 ([1]; read-out: IC50 range): < 1000 nM; % Inh. (range) ([3]; Aβ-40, 100 μM): E^b (100 μM) (% inhibition of 25-75%)
CC(C)[C@@H](OC(=O)N1CCC1)C1C[C@@H](C)[C@H]2C(O1)[C@H](O)[C@@]1(C)C3CC[C@H]4C(C)(C)C(OC(=O)N5CC(NCC(F)(F)F)C5)CC[C@@]45C[C@@]35CC[C@]21C (stereo partly shown)			< 1000 nM		1000 to 10000 nM	> 10000 nM		
CC(C)[C@@H](OC(=O)N1CCC1)C1C[C@@H](C)[C@H]2C(O1)[C@H](O)[C@@]1(C)C3CC[C@H]4C(C)(C)C(OC(=O)N5CC6(COC6)C5)CC[C@@]45C[C@@]35CC[C@]21C (stereo partly shown)			< 1000 nM		< 1000 nM	> 10000 nM		
CC(C)CO[C@@H](C1C[C@@H](C)[C@H]2C(O1)[C@H](O)[C@@]1(C)C3CC[C@H]4C(C)(C)C(OC(=O)NC5CN(C=O)C5)CC[C@@]45C[C@@]35CC[C@]21C)C(C)(C)O (stereo partly shown)			< 1000 nM	1000 to 10000 nM	1000 to 10000 nM	1000 to 10000 nM	1000 to 10000 nM	
CC1CC(C(=O)O)OC2C1C1(C)CCC34CC35CCC(O)C(C)(C)C5CCC4C1(C)C2O (stereo not shown) [drawing 1208]								% Inh. (range) ([1]; Aβ-42, 20 μM): F^a (20 μM) F^b (20 μM) F^c (20 μM) (% inhibition of <25%); % Inh. (range) ([2]; Aβ-38, 20 μM): F^a (20 μM) F^b (20 μM) F^c (20 μM) (% inhibition of <25%); % Inh. (range) ([3]; Aβ-40, 20 μM): F^a (20 μM) F^b (20 μM) F^c (20 μM) (% inhibition of <25%)
CC1CC(C(OC(=O)CC2CC2)C(C)(C)O)OC2C1C1(C)CCC34CC35CCC(OC3CN(C6COC6)CCO3)C(C)(C)C5CCC4C1(C)C2O (stereo not shown)		< 1000 nM						IC50 ([1]; read-out: 50% reduction value): < 1000 nM; IC50 ([1]; read-out: IC50 range): < 1000 nM; IC50 ([2]; read-out: IC50 range): < 1000 nM; IC50 ([3]; read-out: 50% reduction value): 1000 to 10000 nM; IC50 ([3]; read-out: IC50 range): 1000 to 10000 nM
CCO[C@@H]([C@H]1C[C@@H](C)[C@H]2[C@H](O1)[C@H](O)[C@@]1(C)[C@@H]3CC[C@H]4C(C)(C)[C@@H](OC5CN(C)CCO5)CC[C@@]45C[C@@]35CC[C@]21C)C(C)(C)O (stereo partly shown)	< 1000 nM		< 1000 nM	< 1000 nM	< 1000 nM	1000 to 10000 nM	1000 to 10000 nM	
CC(=O)OCC1C[C@@H](C)[C@H]2C(O1)[C@H](O)[C@@]1(C)C3CC[C@H]4C(C)(C)[C@@H](O[C@H]5CN(C6COC6)CCO5)CC[C@@]45C[C@@]35CC[C@]21C (stereo partly shown)								inhibition at 20 µM ([1]; Homo sapiens, Aβ-42, 20 μM): < 25%; inhibition at 20 µM ([2]; Homo sapiens, Aβ-38, 20 μM): 25 to 75%; inhibition at 20 µM ([3]; Homo sapiens, Aβ-40, 20 μM): < 25%

From patent publication US20110251379A1, “COMPOUNDS USEFUL FOR TREATING NEURODEGENERATIVE DISORDERS” (Satori Pharmaceuticals, Inc., priority 2010, published 2011)
